According to PMC8600648 (ACS Omega, 2021):

Target: TMV-CP (tobacco mosaic virus coat protein) (Tobacco mosaic virus (vulgare), UniProt P69687)
Assay: microscale thermophoresis
Format: binding

Sequence of TMV-CP (tobacco mosaic virus coat protein) (P69687 2-159 limits assumed): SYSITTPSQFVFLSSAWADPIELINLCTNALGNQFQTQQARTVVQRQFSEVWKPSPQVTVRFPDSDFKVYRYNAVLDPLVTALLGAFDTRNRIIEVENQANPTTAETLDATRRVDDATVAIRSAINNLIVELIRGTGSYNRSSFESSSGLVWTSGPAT

O=c1c(O)c(-c2cc(O)c(O)c(O)c2)oc2cc(O)cc(O)c12 [myricetin, 3,5,7-trihydroxy-2-(3′,4′,5′-trihydroxyphenyl)-4H-chromen-4-one]
Kd: 62.2 ± 22.2 µM
